# “And” between values parts separate entries of the source, which are not always exact repeats. Equal values may be shown once.
# Assays:
# [1] = target: skeletal muscle myosin S2 peptide (MYH2) (Homo sapiens, UniProt Q9UKX2); test: GFS, uncoiling of skeletal myosin S2 peptide dimer; assay type: biochemical; design: host or cells: chemical synthesis; settings: length 10 nm, absence of anti-S2 peptides, ± SEM
# From the text: (§1) 3-aminopropyltriethoxysilane, acetone, coupling buffer (0.01 M pyridine in water with pH 6.0), 5% glutaraldehyde, quenching solution (1 M glycine in water with pH 7.0), blocking buffer (0.01 M Tris, 0.1% sodium azide, 0.1% bovine serum albumin, 0.15 M sodium chloride, and 0.001 M ethylenediaminetetraacetic acid with pH 7.0), wash buffer (0.01 M Tris, 0.1% sodium azide, 0.15 M sodium chloride, and 0.001 M ethylenediaminetetraacetic acid with pH 7.0) low salt buffer (0.1 M potassium chloride, 0.02 M imidazole, 5 mM magnesium chloride, with pH 7.0), 1-ethyl-3-(3-dimethyaminopropyl) carbodiimide, N-hydroxysuccinamide, iodoacetamide-succinimidyl ester, 8M urea solution (50 mM imidazole and 0.1 mM tris (2-carboxyethyl) phosphine with pH 7.0) monodisperse silica beads, glass slides, glass coverslips, vacuum grease, rabbit skeletal myosin, purified actin (G-actin), 1 μM human β-cardiac myosin S2 peptide, 1 μM human β-cardiac mutants myosin S2 peptide (E930del and E924K), 1 μM human skeletal myosin S2 peptide, 1 μM human smooth myosin S2 peptide, stabilizer peptide, and destabilizer peptide. A light microscope with an objective lens of 10× was mounted on an alt-azimuthal mount. A digital video camera of Sony, XCD-V60 was replaced with the ocular lenses. Extension springs on steel bracket held the alt-azimuthal mount suspended.
# (§2) Gravitational force spectroscopy (GFS), is a single molecule force spectroscopy that utilizes gravitational force to measure absolute length of a single molecule at the given force calculated by the density of the bead suspending the molecule. This technique was discovered and developed in Root lab, which measures the forces in piconewton and sub-piconewton levels. Other than absolute length of a molecule, GFS measures force range required to uncoil, stretch or extend the molecule yielding a force-distance profile for the suspended molecule. Besides that, based on the force-distance profile, number of amino acids within the molecule can be calculated. […] The GFS allowed to test the flexibility or stability of a single molecule of myosin S2 peptide and also for the S2 peptides treated with anti-S2 peptides. Flexibility of myosin S2 is not dependent on assembly myosin as a thick filament or myosin in its single molecule form. The flexibility of myosin S2 region was reported to be similar in single molecule form or myosin in a thick filament assembly thus it could be conceived that the changes seen on flexibility of myosin S2 in presence of anti-S2 peptides would correlate to changes in myosin S2 flexibility for myosin in a thick filament form (Singh et al., 2018). The schematic diagram of GFS is shown below (schematic diagrams of GFS which has two modes: (FIG. 15) free-fall mode, (FIG. 16) rotational mode.
# Free fall mode, another measurement variant of GFS which allows the user to get a force distance profile on a single molecule experiencing the gravitational force. Free fall mode allows a variable force by the virtue of gravity to be exerted on a single molecule. The GFS setup, light microscope with mounted camera on spring on alt-azimuthal platform, can be dropped. The start of free-fall mode force applied to the bead is zero or close to zero. […] As the platform goes towards equilibrium, trace of the acceleration decays. During the free fall mode, GFS has a single molecule which is suspended within an immobile edge and mobile bead will now experience the variable force which would be calculated by the product of mass of the bead and the acceleration of the GFS.
# The product of the GFS acceleration and the mass of the bead will provide a force trace for the single molecule tethered between the immobile edge and mobile bead. The image processing would provide distance trace for the single molecule experiencing the free fall by the GFS. When this force trace is aligned with distance trace will yield the extension or the stretch experience by the single molecule under variable forces. […]
# [2] = target: T1, cardiac muscle myosin S2 peptide E930del (MYH7 E930del) (Homo sapiens, UniProt P12883, DEL931-931); test: GFS, uncoiling of E930del cardiac myosin S2 peptide dimer; assay type: biochemical; settings: for Force required to uncoil S2 molecule: length 10 nm, absence of stabilizer, ± SEM
# T1 construct: host or cells: chemical synthesis
# T1 sequence (P12883 with tags, fused parts or gaps DEL931-931): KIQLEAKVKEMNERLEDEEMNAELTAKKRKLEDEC
# From the text: as §1
# as §2, with “The flexibility of myosin S2 region was reported to be similar in single molecule form or myosin in a thick filament assembly thus it could be conceived that the changes seen on flexibility of myosin S2 in presence of anti-S2 peptides would correlate to changes in myosin S2 flexibility for myosin in a thick filament form (Singh et al., 2018). The schematic diagram of GFS is shown below (schematic diagrams of GFS which has two modes: (FIG. 15) free-fall mode, (FIG. 16) rotational mode.” left out
# Free fall mode, another measurement variant of GFS which allows the user to get a force distance profile on a single molecule experiencing the gravitational force. […] During the free fall mode, GFS has a single molecule which is suspended within an immobile edge and mobile bead will now experience the variable force which would be calculated by the product of mass of the bead and the acceleration of the GFS. […]
# [3] = target: T2, cardiac muscle myosin S2 peptide (MYH7) (Homo sapiens, UniProt P12883); test: Gravitational force spectroscopy (GFS), uncoiling of cardiac myosin S2 peptide dimer; assay type: biochemical; settings: length 10 nm, absence of anti-S2 peptides, ± SEM
# T2 construct: host or cells: chemical synthesis
# T2 sequence (P12883 912-947 limits assumed): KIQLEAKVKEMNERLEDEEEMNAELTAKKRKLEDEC
# From the text: as §1, §2
# GFS set up assembly contains a light microscope that is horizontally mounted on an alt-azimuthal which is suspended with help of extension springs on a steel bracket. To capture both images and videos of suspended molecule, a digital video camera has been placed instead of the ocular lenses. The molecule of interest is tethered between an immobile edge of glass coverslip placed on a glass slide and mobile silica or glass bead. Slide with the molecule of interest in inserted into the light microscope component of GFS. The bead with molecule of interest is imaged through the microscope and then oriented to the direction of gravity vector to allow the maximal gravitation force exerted on to the bead. GFS has two modes, one is called rotational mode or an equilibrium mode which measures the absolute length of a single molecule and the second one is called free fall mode which measures the force required to unwind, uncoil, stretch or extend the molecule of interest.
# Free fall mode, another measurement variant of GFS which allows the user to get a force distance profile on a single molecule experiencing the gravitational force. […]
# [4] = test system: primary polyclonal anti-S2 antibody; test: cELISA of human cardiac myosin S2 peptide against rabbit skeletal myosin S2 for antibody; assay type: binding; settings: antibody diluted 1:64
# Method: To evaluate the amount of cardiac myosin S2 peptide that would compete with rabbit skeletal myosin S2 to bind primary polyclonal anti-S2 antibody, the microtiter plate was coated with rabbit skeletal myosin first to that was added two fold dilutions of human cardiac myosin S2 peptide from 1000 nanomolar (nM) to 1 nM. Following this 1:64 diluted primary polyclonal antibody was added. After the washing step, secondary antibody is added followed by BCIP and development of color or OD was recorded and the video was analyzed by Image J. The OD will decrease as the concentration of human cardiac myosin S2 increases. […] The minimum amount of human cardiac myosin S2 peptide that would bind primary polyclonal anti-S2 antibody was at 62.5 nM (FIG. 36). Such a high binding efficiency was expected, since primary polyclonal anti-S2 antibody was raised against the same human cardiac myosin S2.
# [5] = target: T3, smooth muscle myosin S2 peptide (MYH11) (Homo sapiens, UniProt P35749); test: FRET of smooth muscle myosin S2 peptide dimer with anti-S2 peptides; assay type: binding; settings: control, no anti-S2 peptide; read-out: Dissociation Constant (Kd) of S2 peptide dimer
# T3 construct: A 21 residue peptide of the S2 region of MYH11 was matched to the previously synthesized S2 peptide; host or cells: chemical synthesis
# From the text: Human smooth muscle myosin heavy chain (MYH11) is a part of the non-striated muscle. This gene can be found within esophagus, endometrium, duodenum, etc. A 21 residue peptide of the S2 region of MYH11 was matched to the previously synthesized S2 peptide of cardiac isoform and chemically synthesized 926-946. Generated amino acid sequence used is as follow: • Smooth: NH2-[…]—COOH (SEQ ID NO:11)
# Resonance energy probes (donor and acceptor) were covalently attached to synthetic myosin S2 peptides of cardiac muscle, E930del cardiac muscle, E924K cardiac muscle, smooth muscle, and skeletal muscle (Aboonasrshiraz, N., 2020).
# Acceptor probe was conjugated to muscle myosin S2 peptides at N-terminus. Muscle myosin S2 peptides were dissolved in 20 mM HEPES buffer at pH 8.0. And FITC was dissolved in few drops of N, N dimethyl formamide. Lastly, FITC and muscle myosin S2 peptide was reacted together in 1 to 1 molar ratio and was let to react for 120 minutes at room temperature. […]
# In FRET assay, Fluorescein Isothiocyanate (FITC) functioned as fluorescent acceptor probe and Terbium Diethylene Triamine Pentaacetic Acid-Cytosine (Lanthanide-DTPA-Cytosine) functioned as donor probe. […] Lifetime of donor probe was measured in milliseconds.
# The specificity of peptides were later tested on the myosin S2 of the smooth muscle (MYH11). […] Calculated separation distance in presence of the stabilizer peptide was 3.34 nm.
# [6] = target: T4, human cardiac myosin S2 peptide (Homo sapiens, UniProt P12883); test: Competitive ELISA (cELISA) against polyclonal anti-S2 antibody; assay type: binding; settings: curve fit of OD vs peptide concentration; read-out: binding efficiency (Kd) to human cardiac myosin S2 peptide
# T4 construct: The 19 residue peptide was chemically synthesized
# Method: Phosphate buffer saline (PBS) contained 0.14 M sodium chloride, 2.7 mM potassium chloride, 1.5 mM potassium phosphate monobasic, and 8.1 mM sodium phosphate dibasic with pH 7.4. Detergent buffer was made with 0.05% triton X-100 in PBS, blocking buffer was made with 3% powdered milk in detergent buffer. Assay buffer contained 100 mM potassium phosphate dibasic, 100 mM potassium phosphate monobasic, 1 M potassium chloride and 10 mM magnesium chloride with pH 7.0. Stocks of primary antibody (polyclonal antibody anti-S2), rabbit skeletal myosin, human cardiac myosin S2 peptide, stabilizer and destabilizer peptide. Secondary antibody conjugated with alkaline phosphatase was anti-guinea pig immunoglobulin G (IgG)-alkaline phosphatase (Sigma-Aldrich, catalog number A5062) produced in goat and isolated by affinity chromatography. Substrate was 5-Bromo-4-chloro-3-indolyl phosphate (BCIP) tablets dissolved in 10 ml of distilled water per tablet and 96 well microtiter plate.
# Competitive Enzyme Linked Immunosorbent Assay (cELISA) is a classical immunochemical test to validate the binding efficiency and specificity in lower molar concentrations (Yorde et al., 1976; Voller et al., 1978; Walker, J. M. 1996). In this assay the polyclonal antibody anti-S2 raised against single alpha helix of myosin S2 would be used to compete with stabilizer or destabilizer peptide to bind myosin S2 in rabbit skeletal myosin molecule as well as small human cardiac myosin S2 peptide. This cELISA, thus have two molecules polyclonal anti-S2 and stabilizer peptide which have two binding sites one on rabbit skeletal myosin and the other one being on small human cardiac myosin S2. Since both polyclonal anti-S2 and stabilizer peptide were designed against human β-cardiac myosin S2 they both would have a stronger affinity towards the smaller human β-cardiac myosin S2 peptide against the myosin S2 on rabbit skeletal myosin.
# To test the binding specificity and efficiency of stabilizer or destabilizer peptide the following setup was used. Start of the setup would be to coat the wells with rabbit skeletal myosin molecule and add appropriate amount human cardiac myosin S2 peptide that would bind the primary polyclonal anti-S2 antibody and when washed there won't be enough primary polyclonal anti-S2 antibody to bind myosin S2 of rabbit skeletal myosin adsorbed on the wells. When alkaline phosphatase conjugated secondary antibody is added on to the wells, it won't have enough or none primary polyclonal anti-S2 antibody to bind. After addition of color developing BCIP substrate to the wells it would lead to low or no color development leading to lower optical density (OD). […]
# skeletal muscle myosin S2 peptide (MYH2), sequence (Q9UKX2 918-953 limits assumed): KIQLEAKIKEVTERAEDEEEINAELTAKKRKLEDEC
compound,measurement,setting,value
"H-EVTERAEDEEEINAELTAK-OH [Skeletal Myosin S2, reference compound]",Force required to uncoil S2 molecule,[1],4.50E−01 ± 5.56E−02 pN
same,Force required to uncoil S2 molecule,[1]; listed as skeletal muscle myosin S2,4.50×10^−1±5.56×10^−2 pN
"H-EMNERLEDEEMNAELTAK-OH [Cardiac Myosin S2 Mutant, E930del]",Force required to uncoil S2 molecule,[2],4.11E−01 ± 2.97E−02 pN
same,Force required to uncoil S2 molecule,[2]; listed as E930del,4.11×10^−1±2.97×10^−2 pN
same,mechanical instability compared to wild type cardiac muscle myosin S2,[2]; no anti-S2 peptide,2.10 times
"H-EMNERLEDEEEMNAELTAK-OH [Cardiac Myosin S2, reference compound]",Force required to uncoil S2 molecule,[3],8.63E−01 ± 7.45E−02 pN
same,Force required to uncoil S2 molecule,[3]; listed as cardiac muscle myosin S2,8.63×10^−1±7.45×10^−2 pN
same,minimum amount that would bind primary polyclonal anti-S2 antibody,[4],62.5 nM
"H-EMEARLEEEEDRGQQLQAERK-OH [Smooth Myosin S2, reference compound]",Kd,[5],302 nM
C[C@H](NC(=O)[C@H](CCCCN)NC(=O)[C@H](Cc1ccccc1)NC(=O)[C@H](CCCCN)NC(=O)[C@H](CCCCN)NC(=O)[C@H](CCCCN)NC(=O)[C@H](CCCCN)NC(=O)[C@H](CCCCN)NC(=O)[C@H](CCCCN)NC(=O)[C@H](CCCCN)NC(=O)[C@@H](N)CCCCN)C(=O)N[C@@H](CCCCN)C(=O)N[C@@H](CCCCN)C(=O)N[C@@H](CCCCN)C(=O)N[C@@H](CCCCN)C(=O)N[C@@H](CCCCN)C(=O)N[C@@H](CCCCN)C(=O)O [stabilizer peptide],Kd,[6],1.37 nM and 1.38 nM
